Patent publication US20230165980A1, “METHODS FOR RADIOLABELING PSMA BINDING LIGANDS AND THEIR KITS” (Novartis AG, priority 2020, published 2023)

Assay: Radiochemical purity and radiochemical stability of ^68GaPSMA-11 by HPLC
Type: physicochemical
Details: for [^68Ga] Gallium PSMA-11 (sum of stereosiomers), HPLC / [^68Ga] Gallium free, HPLC / [^68Ga] Gallium main degradant, HPLC: t0 h
Protocol: Radiochemical Purity and Identification of ^68GaPSMA-11 by HPLC
Chromatographic Conditions
Radical Scavenger to be used for the improvement of the radiochemical stability of ^68Ga-PSMA-11, tests were performed according to a varied approach in order to consider all the parameters that may affect the radiochemical purity of the product (activity, pH, volume, amount of Gentisic Acid).
Stability tests were performed on the freeze dried product containing the final formulation. […] Kits manufactured with the final formulation, indeed, were stored at different stability conditions (2-8° C.; 25° C. and 40° C.) and were tested at different time points for API-assay, Radiochemical Purity and Radiochemical Stability of the radiolabelled product. Radiochemical Purity and Stability were assessed only eluting IRE Generator which represented the most stressful condition in terms of Radioactive Concentration (Volumic Activity).

[1] = Gentisic Acid 0 μg, IRE 17.19 mCi, 1 mL, pH 5.24
[2] = Gentisic Acid 200 μg, IRE 17.85 mCi, 1 mL, pH 5.22
[3] = Gentisic Acid 200 μg, IRE 18.07 mCi, 1 mL, pH 5.25
[4] = Gentisic Acid 200 μg, ITG 35.92 mCi, 4 mL, pH 4.83
[5] = Gentisic Acid 400 μg, IRE 17.44 mCi, 1 mL, pH 5.13
[6] = Gentisic Acid 400 μg, IRE 17.79 mCi, 1 mL, pH 5.11
[7] = Gentisic Acid 400 μg, ITG 16.9 mCi, 4 mL, pH 4.85
[8] = Gentisic Acid 400 μg, ITG 31.97 mCi, 4 mL, pH 4.81
[9] = Gentisic Acid 1000 μg, E&Z 15.65 mCi, 5 mL, pH 3.75
[10] = Gentisic Acid 1000 μg, IRE 17.1 mCi, 1 mL, pH 5.08
[11] = Gentisic Acid 1000 μg, ITG 30.9 mCi, 4 mL, pH 4.87
[12] = final formulation kit at Release, E&Z 15.65 mCi, 5 mL, pH 3.75
[13] = final formulation kit at Release, E&Z 16.80 mCi, 5 mL, pH 3.75
[14] = final formulation kit at Release, IRE 32.27 mCi, 1 mL, pH 4.95
[15] = final formulation kit at Release, IRE 32.95 mCi, 1 mL, pH 5.07
[16] = final formulation kit at Release, ITG 29.74 mCi, 4 mL, pH 4.67
[17] = final formulation kit at Release, ITG 30.90 mCi, 4 mL, pH 4.67
[18] = kit stored 3 months at 2-8° C., IRE 25.76 mCi, 1 mL, pH 5.29
[19] = kit stored 3 months at 25° C., IRE 24.56 mCi, 1 mL, pH 5.16
[20] = kit stored 3 months at 40° C., IRE 24.86 mCi, 1 mL, pH 5.23
[21] = kit stored 6 months at 2-8° C., IRE 19.90 mCi, 1 mL, pH 5.13
[22] = kit stored 6 months at 25° C., IRE 18.88 mCi, 1 mL, pH 5.09
[23] = kit stored 6 months at 40° C., IRE 19.34 mCi, 1 mL, pH 5.15

^68Ga-PSMA-11 [[^68Ga] Gallium PSMA-11]
time for which the radiolabelled product is stable with high radiochemical purity (400 μg Gentisic Acid): up to 4 hours | [^68Ga] Gallium PSMA-11 (sum of stereosiomers), HPLC [1]: 92.71% | [^68Ga] Gallium free, HPLC [1]: 0.15% | [^68Ga] Gallium main degradant, HPLC [1]: 6.61% | [^68Ga] Gallium PSMA-11 (sum of stereosiomers), HPLC [2]: 97.76% | [^68Ga] Gallium free, HPLC [2]: 0.00% | [^68Ga] Gallium main degradant, HPLC [2]: 1.83% | [^68Ga] Gallium PSMA-11 (sum of stereosiomers), HPLC [3]: 98.46% | [^68Ga] Gallium free, HPLC [3]: 0.00% | [^68Ga] Gallium main degradant, HPLC [3]: 1.21% | [^68Ga] Gallium PSMA-11 (sum of stereosiomers), HPLC [4]: 99.56% | [^68Ga] Gallium free, HPLC [4]: 0.00% | [^68Ga] Gallium main degradant, HPLC [4]: 0.19% | [^68Ga] Gallium PSMA-11 (sum of stereosiomers), HPLC [5]: 99.29% | [^68Ga] Gallium free, HPLC [5]: 0.00% | [^68Ga] Gallium main degradant, HPLC [5]: 0.71% | [^68Ga] Gallium PSMA-11 (sum of stereosiomers), HPLC [6]: 98.88% | [^68Ga] Gallium free, HPLC [6]: 0.12% | [^68Ga] Gallium main degradant, HPLC [6]: 1.00% | [^68Ga] Gallium PSMA-11 (sum of stereosiomers), HPLC [7]: 99.16% | [^68Ga] Gallium free, HPLC [7]: 0.08% | [^68Ga] Gallium main degradant, HPLC [7]: 0.19% | [^68Ga] Gallium PSMA-11 (sum of stereosiomers), HPLC [8]: 99.35% | [^68Ga] Gallium free, HPLC [8]: 0.00% | [^68Ga] Gallium main degradant, HPLC [8]: 0.16% | [^68Ga] Gallium PSMA-11 (sum of stereosiomers), HPLC [9]: 99.87% | [^68Ga] Gallium free, HPLC [9]: 0.00% | [^68Ga] Gallium main degradant, HPLC [9]: 0.00% | [^68Ga] Gallium PSMA-11 (sum of stereosiomers), HPLC [10]: 99.67% | [^68Ga] Gallium free, HPLC [10]: 0.00% | [^68Ga] Gallium main degradant, HPLC [10]: 0.33% | [^68Ga] Gallium PSMA-11 (sum of stereosiomers), HPLC [11]: 99.80% | [^68Ga] Gallium free, HPLC [11]: 0.01% | [^68Ga] Gallium main degradant, HPLC [11]: 0.02% | [^68Ga] Gallium PSMA-11 (sum of stereosiomers), HPLC [12]: 99.87% | [^68Ga] Gallium free, HPLC [12]: 0.00% | [^68Ga] Gallium main degradant, HPLC [12]: 0.00% | [^68Ga] Gallium PSMA-11 (sum of stereosiomers), HPLC [13]: 99.68% | [^68Ga] Gallium free, HPLC [13]: 0.00% | [^68Ga] Gallium main degradant, HPLC [13]: 0.19% | [^68Ga] Gallium PSMA-11 (sum of stereosiomers), HPLC [14]: 99.58% | [^68Ga] Gallium free, HPLC [14]: 0.00% | [^68Ga] Gallium main degradant, HPLC [14]: 0.00% | [^68Ga] Gallium PSMA-11 (sum of stereosiomers), HPLC [15]: 99.66% | [^68Ga] Gallium free, HPLC [15]: 0.00% | [^68Ga] Gallium main degradant, HPLC [15]: 0.23% | [^68Ga] Gallium PSMA-11 (sum of stereosiomers), HPLC [16]: 99.81% | [^68Ga] Gallium free, HPLC [16]: 0.00% | [^68Ga] Gallium main degradant, HPLC [16]: 0.05% | [^68Ga] Gallium PSMA-11 (sum of stereosiomers), HPLC [17]: 98.80% | [^68Ga] Gallium free, HPLC [17]: 0.01% | [^68Ga] Gallium main degradant, HPLC [17]: 0.02% | [^68Ga] Gallium PSMA-11 (sum of stereosiomers), HPLC [18]: 99.28% | [^68Ga] Gallium free, HPLC [18]: 0.04% | [^68Ga] Gallium main degradant, HPLC [18]: 0.55% | [^68Ga] Gallium PSMA-11 (sum of stereosiomers), HPLC [19]: 99.22% | [^68Ga] Gallium free, HPLC [19]: 0.05% | [^68Ga] Gallium main degradant, HPLC [19]: 0.19% | [^68Ga] Gallium PSMA-11 (sum of stereosiomers), HPLC [20]: 98.92% | [^68Ga] Gallium free, HPLC [20]: 0.07% | [^68Ga] Gallium main degradant, HPLC [20]: 0.26% | [^68Ga] Gallium PSMA-11 (sum of stereosiomers), HPLC [21]: 99.40% | [^68Ga] Gallium free, HPLC [21]: 0.00% | [^68Ga] Gallium main degradant, HPLC [21]: 0.47% | [^68Ga] Gallium PSMA-11 (sum of stereosiomers), HPLC [22]: 99.32% | [^68Ga] Gallium free, HPLC [22]: 0.00% | [^68Ga] Gallium main degradant, HPLC [22]: 0.42% | [^68Ga] Gallium PSMA-11 (sum of stereosiomers), HPLC [23]: 99.21% | [^68Ga] Gallium free, HPLC [23]: 0.04%
